Experimental data reported in the NIST ThermoML archive (doi:10.1021/je060415l).

Test: isobaric coefficient of expansion
Settings: Liquid, expansion method

CO [methanol]
Settings | isobaric coefficient of expansion
248.17 K, 45100 kPa | 0.000942 1/K
248.19 K, 590 kPa | 0.00112 1/K
249.69 K, 80030 kPa | 0.000847 1/K
250.17 K, 20010 kPa | 0.00104 1/K
250.17 K, 45100 kPa | 0.000939 1/K
250.18 K, 590 kPa | 0.00112 1/K
252.18 K, 590 kPa | 0.00113 1/K
252.18 K, 20010 kPa | 0.00103 1/K
252.18 K, 45100 kPa | 0.000938 1/K
252.2 K, 80030 kPa | 0.000842 1/K
254.18 K, 590 kPa | 0.00113 1/K
254.18 K, 20010 kPa | 0.00103 1/K
254.18 K, 45100 kPa | 0.00094 1/K
254.72 K, 80030 kPa | 0.000837 1/K
256.17 K, 590 kPa | 0.00114 1/K
256.17 K, 20010 kPa | 0.00103 1/K
256.18 K, 45100 kPa | 0.000937 1/K
257.2 K, 80030 kPa | 0.00084 1/K
258.17 K, 590 kPa | 0.00113 1/K
258.17 K, 20010 kPa | 0.00104 1/K
258.18 K, 45100 kPa | 0.000937 1/K
259.68 K, 80030 kPa | 0.000841 1/K
260.18 K, 590 kPa | 0.00113 1/K
260.18 K, 45100 kPa | 0.000932 1/K
262.17 K, 590 kPa | 0.00114 1/K
262.17 K, 20010 kPa | 0.00103 1/K
262.17 K, 45100 kPa | 0.000936 1/K
262.21 K, 80030 kPa | 0.000841 1/K
264.17 K, 20010 kPa | 0.00103 1/K
264.17 K, 45100 kPa | 0.000938 1/K
264.77 K, 80030 kPa | 0.000839 1/K
266.17 K, 590 kPa | 0.00113 1/K
266.17 K, 20010 kPa | 0.00103 1/K
266.17 K, 45100 kPa | 0.000942 1/K
267.34 K, 80030 kPa | 0.000835 1/K
268.16 K, 20010 kPa | 0.00103 1/K
268.17 K, 590 kPa | 0.00114 1/K
268.17 K, 45100 kPa | 0.000934 1/K
269.32 K, 80030 kPa | 0.000834 1/K
270.16 K, 590 kPa | 0.00114 1/K
270.16 K, 20010 kPa | 0.00104 1/K
272.14 K, 45100 kPa | 0.00094 1/K
272.52 K, 80030 kPa | 0.000831 1/K
274.14 K, 45100 kPa | 0.000947 1/K
274.15 K, 20010 kPa | 0.00104 1/K
275.11 K, 80030 kPa | 0.000835 1/K
276.12 K, 590 kPa | 0.00114 1/K
276.14 K, 45100 kPa | 0.000938 1/K
276.15 K, 20010 kPa | 0.00104 1/K
277.69 K, 80030 kPa | 0.000835 1/K
278.13 K, 45100 kPa | 0.00094 1/K
278.15 K, 20010 kPa | 0.00104 1/K
278.16 K, 590 kPa | 0.00115 1/K
280.14 K, 45100 kPa | 0.00094 1/K
280.15 K, 20010 kPa | 0.00104 1/K
280.16 K, 590 kPa | 0.00115 1/K
280.28 K, 80030 kPa | 0.000833 1/K
282.13 K, 45100 kPa | 0.00094 1/K
282.15 K, 590 kPa | 0.00116 1/K
282.15 K, 20010 kPa | 0.00104 1/K
282.88 K, 80030 kPa | 0.000832 1/K
284.13 K, 45100 kPa | 0.000945 1/K
284.14 K, 590 kPa | 0.00116 1/K
284.14 K, 20010 kPa | 0.00104 1/K
285.53 K, 80030 kPa | 0.000829 1/K
286.15 K, 590 kPa | 0.00118 1/K
286.15 K, 20010 kPa | 0.00105 1/K
288.14 K, 45100 kPa | 0.000945 1/K
288.16 K, 590 kPa | 0.00117 1/K
288.17 K, 80030 kPa | 0.000826 1/K
289.13 K, 590 kPa | 0.00118 1/K
290.13 K, 45100 kPa | 0.000945 1/K
290.14 K, 20010 kPa | 0.00106 1/K
290.16 K, 590 kPa | 0.00117 1/K
290.79 K, 80030 kPa | 0.000832 1/K
291.13 K, 590 kPa | 0.00118 1/K
292.14 K, 45100 kPa | 0.000943 1/K
292.15 K, 20010 kPa | 0.00104 1/K
292.16 K, 590 kPa | 0.00117 1/K
293.12 K, 590 kPa | 0.00119 1/K
293.4 K, 80030 kPa | 0.000846 1/K
294.13 K, 45100 kPa | 0.000938 1/K
294.14 K, 20010 kPa | 0.00105 1/K
294.16 K, 590 kPa | 0.00118 1/K
295.12 K, 590 kPa | 0.0012 1/K
296.02 K, 80030 kPa | 0.000842 1/K
296.13 K, 45100 kPa | 0.00094 1/K
296.14 K, 20010 kPa | 0.00105 1/K
296.16 K, 590 kPa | 0.00117 1/K
297.12 K, 590 kPa | 0.00118 1/K
298.13 K, 45100 kPa | 0.000942 1/K
298.15 K, 20010 kPa | 0.00105 1/K
298.17 K, 590 kPa | 0.00118 1/K
298.65 K, 80030 kPa | 0.00085 1/K
300.16 K, 590 kPa | 0.00119 1/K
301.27 K, 80030 kPa | 0.000833 1/K
